Biological target: T1, FepB (FepB-6His, apo-FepB) (Staphylococcus aureus, UniProt Q2G130)
T1 construct: gene SAOUHSC_00326; Tat signal peptide removed; six-histidine tag kept (pET22b NdeI/XhoI); expressed in E. coli; apo form monomeric after gel filtration (heme-loaded form dimeric)
Experiment: UV-visible absorbance titration (Soret band […] nm), one-site fit
Assay type: binding
Conditions: apo-FepB 2.2 µM, 50 mM Tris-HCl pH 8.0, 0.2 M NaCl, room temperature; stoichiometry 0.9; PPIX in DMSO; stoichiometry 0.7

T1 sequence (Q2G130 entry or part of it): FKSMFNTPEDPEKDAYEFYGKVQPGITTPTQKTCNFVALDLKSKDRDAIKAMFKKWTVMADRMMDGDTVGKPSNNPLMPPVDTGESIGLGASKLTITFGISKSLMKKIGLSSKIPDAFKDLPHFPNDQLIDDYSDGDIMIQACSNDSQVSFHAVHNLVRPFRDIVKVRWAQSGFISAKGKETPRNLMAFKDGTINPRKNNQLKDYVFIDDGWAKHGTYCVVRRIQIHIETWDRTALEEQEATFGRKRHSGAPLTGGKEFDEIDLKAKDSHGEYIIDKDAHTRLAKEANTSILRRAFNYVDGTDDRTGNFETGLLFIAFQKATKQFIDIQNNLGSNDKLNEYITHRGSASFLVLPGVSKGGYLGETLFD

## C=CC1=C(C)c2cc3[nH]c(cc4nc(cc5[nH]c(cc1n2)c(C)c5CCC(=O)O)C(CCC(=O)O)=C4C)c(C)c3C=C [PPIX]
  Kd: 21.1±5,2 nM

Reference: publication PMC3577903, “Staphylococcus aureus FepA and FepB Proteins Drive Heme Iron Utilization in Escherichia coli” (PLoS ONE, 2013)
